One data set deals with plasmatic proteins. Particulars: cited from earlier work.
Data set [1] has as its system gouty arthritis-type pain. As to the kind of experiment: PIFIR pain-induced functional impairment model in the rat. It counts as in vivo, male Wistar rats. The settings on record: for MAXIMUM EFFICACY (ABC: X ± E.E.): dose of each analgesic (mg/kg); for RELATIVE EFFICACY: relative to maximum efficacy of rac-ketorolac; for Emax reached in the temporal curve / latency in reaching the Emax in the temporal curve: highest doses. The text has this: In order to determine and compare the antinociceptive effects of these analgesics the preclinical experimental model of PIFIR “pain-induced functional impairment model in the rat” was used.

For data set [2] the following is noted: cited from earlier work.
For the next data set, the system named is rat population. Particulars: rats, oral route; FIG. 7.
The mark [3] stands for this setting: doses needed to generate 50% of the most effective effect, oral route.

Read-outs that look alike come from different tables or passages of the source.

For the compound `O=C(c1ccccc1)c1ccc2n1CCC2C(=O)O` (racemic) [rac-ketorolac, ketorolac tromethamine], the “bonds with plasmatic proteins” value in the data set on plasmatic proteins is 99%. Moreover, in data set [1] (PIFIR model, rats, oral route), the “RELATIVE POTENCY (relative to 5-ketorolac)” value (from here on “RELATIVE POTENCY”) is listed as −3.3, the “MAXIMUM EFFICACY (ABC: X ± E.E.)” value was 324.6 ± 7.8 and the “RELATIVE EFFICACY” value was determined as 1.0. The “ED60 (mg/kg, oral route) (with regard to Emax: 324 au)” value (“ED60 (mg/kg, oral route)” for short) in data set [1] (PIFIR model, rats) is 1.19 ± 1.2 mg/kg. Besides, the “onset of the analgesic effects after administration” value in data set [2] (any presentation) was 30 min. Moreover, in data set [2] (in vivo), the “excreted renally as a conjugated metabolite” value is reported as 21.9%, the “excreted renally as a hydroxylated metabolite” value is 11.5% and the “excreted renally as the unaltered drug” value is 60.2%. In data set [2] (inactive metabolites), the “metabolized in the liver by conjugation” value is listed as 21%. Also, the “time of maximum level” value in data set [2] (intravenous and intramuscular use) is “first and second hour”. The “time of maximum level” value in data set [2] (oral administration, tablets or capsules) is 3 h.
As to `CC(=O)Oc1ccccc1C(=O)O` [Acetylsalicylic Acid, acetylsalicylic acid], in data set [1] (PIFIR model, rats, oral route), the “RELATIVE POTENCY” value is reported as −1,036.9, the “MAXIMUM EFFICACY (ABC: X ± E.E.)” value is reported as 226.6 ± 11.7 and the “RELATIVE EFFICACY” value is 0.70. Also, in data set [1] (PIFIR model, rats), the “ED60 (mg/kg, oral route)” value is given as 373.3 ± 1.7 mg/kg. In data set [1] (oral route), the “Emax reached in the temporal curve” value is given as “smaller than those exhibited by the other analgesics” and the “latency in reaching the Emax in the temporal curve” value was “least latency in reaching its Emax”.
Take “2-amino-2-hydroximethyl-1,3 propanediol (1:1) S-(−)-5-benzoyl-2,3-dihydro-1H-pyrrolizine-1-carboxylate [S-(−)-ketorolac tromethamine]”: the “effective dose 50 (ED50, 50% of its own maximum effect)” value in data set [1] (PIFIR model, rats, oral route, FIG. 6) is given as “less than the rest of the active substances being studied”. The “MAXIMUM EFFICACY (ABC: X ± E.E.)” value in data set [1] (PIFIR model, rats, oral route) is 310.5 ± 13.5. The “ED60 (mg/kg, oral route)” value in data set [1] (PIFIR model, rats) turned out to be 0.36 ± 1.0 mg/kg. Moreover, in data set [1] (setting [3]), the “times more potent than acetylsalicylic acid” value is 1037 times, the “times more potent than morphine” value was found to be 82 times and the “times more potent than rac-ketorolac” value came out at 3.3 times. In addition, the “fixed effect 4 hours after administration” value in data set [1] (higher doses, oral route, 4 hours) is “the same as that exhibited for rac-ketorolac and by morphine but higher than that exhibited by acetylsalicylic acid”. In data set [1] (oral route), the “Emax reached in the temporal curve” value was “Emax similar to that exhibited by rac-ketorolac and morphine, but this Emax was higher than that exhibited by acetylsalicylic acid”; the “latency in reaching the Emax in the temporal curve” value is “latency similar to that exhibited by rac-ketorolac, but less than that exhibited by morphine”. Also, the “lethal dose 50 (LD50)” value in the data set with rat population was “smaller than the acetylsalicylic acid, but larger than the one reported for rac-ketorolac and morphine”.
`CN1CC[C@]23c4c5ccc(O)c4O[C@H]2[C@@H](O)C=C[C@H]3[C@H]1C5` [Morphine, morphine]: in data set [1] (PIFIR model, rats, oral route), the “RELATIVE POTENCY” value is recorded as −81.5, the “MAXIMUM EFFICACY (ABC: X ± E.E.)” value is given as 310.8 ± 8.9 and the “RELATIVE EFFICACY” value was 1.0. Further, the “ED60 (mg/kg, oral route)” value in data set [1] (PIFIR model, rats) is listed as 29.35 ± 1.1 mg/kg.

(Values after patent publication US20210179623A1, “NEW CHEMICAL COMPOUND CONTAINING ACTIVE ENANTIOMETER S-(-) KETOROLAC TROMETHAMINE FOR THE TREATMENT OF PAIN” (priority 2017, published 2021).)
